“And” between values parts separate entries of the source, which are not always exact repeats. Identical values can stand only once.
What was measured:
[1] = system: standard panel of macromolecular targets; assay: Eurofins SafetyScreen44 off-target panel (enzyme and radioligand-binding assays); conditions: 30 µM
Description: To increase specificity for the lysyl oxidase family, the design of PXS-5505 (Supplementary Data 1–3) was based upon substrate analog fluoroallylamines. Variants of fluoroallylamines have previously been used in amine oxidase inhibitors, including those targeting LOXL2 and LOXL3 (ref. [31]). […] Importantly, PXS-5505 not only maintains the potent functional inhibition of LOXL2 but linkage to a quinoline moiety improves potency for all other lysyl oxidase family members and is key to the superiority of PXS-5505 (Fig. 2a). PXS-5505 is the free base of the active principle, which is suitably isolated as a dihydrochloride salt.

SSAO = molecular target: T1, SSAO (Homo sapiens, UniProt Q16853); assay: Substrate turnover by H2O2 release, amplex red coupled fluorometric activity assay (Extended Data Fig. 3a); type: biochemical
T1 sequence (Q16853 1-763): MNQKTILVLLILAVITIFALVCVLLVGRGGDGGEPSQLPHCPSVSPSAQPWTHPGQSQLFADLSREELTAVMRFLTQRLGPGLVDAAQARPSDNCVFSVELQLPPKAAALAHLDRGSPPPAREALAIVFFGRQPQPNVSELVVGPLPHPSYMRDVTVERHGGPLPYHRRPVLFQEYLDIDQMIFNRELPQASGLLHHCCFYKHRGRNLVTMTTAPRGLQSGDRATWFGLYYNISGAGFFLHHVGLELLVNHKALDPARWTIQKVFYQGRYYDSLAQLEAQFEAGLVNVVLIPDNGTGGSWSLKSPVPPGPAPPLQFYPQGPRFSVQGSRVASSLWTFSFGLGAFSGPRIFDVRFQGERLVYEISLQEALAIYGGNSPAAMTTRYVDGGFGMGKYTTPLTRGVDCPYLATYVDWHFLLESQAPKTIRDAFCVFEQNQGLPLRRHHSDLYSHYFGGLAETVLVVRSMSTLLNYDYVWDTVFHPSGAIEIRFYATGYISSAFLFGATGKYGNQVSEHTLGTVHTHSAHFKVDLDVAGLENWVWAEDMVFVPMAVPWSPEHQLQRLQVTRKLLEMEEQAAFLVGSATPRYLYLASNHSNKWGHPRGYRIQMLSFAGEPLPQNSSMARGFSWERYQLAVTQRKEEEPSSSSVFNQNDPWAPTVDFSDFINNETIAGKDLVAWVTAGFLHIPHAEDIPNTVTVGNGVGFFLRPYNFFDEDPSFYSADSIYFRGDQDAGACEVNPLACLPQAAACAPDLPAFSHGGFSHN
Description: Specifically, BAPN is oxidized by diamine oxidase (DAO) and semicarbazide-sensitive amine oxidase (SSAO)/vascular adhesion protein 1 (VAP-1) in the vasculature (Extended Data Fig. 3a), which releases hydrogen […] (H2O2) and aldehyde in humans leading to toxicity.
Data presented as mean values +/− SD. f. […] Data presented as mean values +/− SD. […] Data presented as mean values +/− SD. […] Data presented as mean values +/− SD. Ordinary one-way ANOVA for multiple comparison test performed. Source data

[2] = Plasma concentration profile after oral PXS-5505 30 mg/kg (Extended Data Fig. 3f); type: in vivo, mice; conditions: for Plasma concentration: mice, individual replicates
Plasma stability = type: in vitro ADME; conditions: In vitro (human)
[3] = system: human pancreatic cancer CAFs; assay: 3D organotypic matrix contraction assay; type: cell-based; set-up: area of matrices: unit not given here; conditions: for area of matrices: single replicates
Description: High-purity rat tail collagen for 3D organotypic assays was acid extracted following previously published methodology. The 12-day organotypic assays were carried out as described previously. In brief, 2 × 10^5 KPC CAFs were embedded in 2.5 ml 1.5 mg ml^−1 rat tail collagen and allowed to remodel for 12 days in a six-well plate in DMEM supplemented with 10% FBS and 1% penicillin–streptomycin in 21% O2/5% CO2 (Extended Data Fig. 4a). For human pancreatic cancer CAFs, 3.45 × 10^5 cells were embedded into 1.25 ml 1.5 mg ml^−1 rat tail collagen and allowed to remodel for 12 days in a 12-well plate in IMDM supplemented with 4 mM glutamine and 10% FBS in 21% O2/5% CO2.
Extended Data Fig. 4 PXS-5505 inhibits collagen cross-linking by PDAC CAFs in vitro resulting in decreased cancer cell invasion. a. Schematic of organotypic matrix remodeling assay whereby CAFs are embedded into a 3D collagen matrix and growth media supplemented with or without PXS-5505 to inhibit lysyl oxidase family activity b. Chemical structures of lysyl oxidase family catalyzed hydroxyallysine or allysine residues and the subsequent divalent and trivalent bonds that are formed that can be quantified by mass spectrometry. c. Representative images of 3D organotypic matrix contraction by human pancreatic cancer CAFs at days 2, 6 and 12 in the absence (gray) and presence (pink) of PXS-5505 (30 µM). Scale bars = 5 mm. […] Data presented as mean values +/− SD. d. […] Data presented as mean values +/− SD. Relative fold expression of LOXL family members compared to LOX were determined by 2^–∆∆Ct approach. f. Schematic of cancer cell invasion in a 3D organotypic matrix assay whereby cancer cells are seeded to the surface of a remodeled collagen plug and placed at an air–liquid interface and allowed to invade into the remodeled matrix. […] Scale bars = 100 μm. g. […] Representative images of 3D organotypic matrix contraction assay at days 2, 6 and 12 of control (gray) and presence of PXS-5120 (blue) and PXS-5505 (pink). Scale bars = 5 mm. Comparison of measured area of matrices between control, PXS-5120 and PXS-5505 treatment groups (n = 3) over time. i. […] Representative images of invasion of KPC cancer cells into a contracted organotypic matrix as determined by H&E staining. […] Source data

Cl.Cl.NC/C=C(\F)CS(=O)(=O)c1cccc2cccnc12.O [PXS-5505, (Z)-3-fluoro-4-(quinolin-8-ylsulfonyl)but-2-en-1-amine dihydrochloride monohydrate]
off-target activity against a standard panel of macromolecular targets [1]: does not show any significant off-target activity
processing as a substrate by SSAO/VAP-1 (SSAO): not processed as a substrate
Turnover by SSAO as measured by H2O2 release, mean (SSAO; listed as value 30 (unit not given)): 1.019
Turnover by SSAO as measured by H2O2 release, mean (SSAO; listed as value 60 (unit not given)): 1.0116
Turnover by SSAO as measured by H2O2 release, mean (SSAO; listed as value 300 (unit not given)): 1.1921
Plasma concentration ([2]; oral 5 mg/kg, time 0.5 hrs, 5 mg/kg): 424 and 270.3 and 246.9
Plasma concentration ([2]; oral 5 mg/kg, time 1 hrs, 5 mg/kg): 183.1 and 190 and 142.6
Plasma concentration ([2]; oral 5 mg/kg, time 2 hrs, 5 mg/kg): 40.1 and 93 and 39.5
Plasma concentration ([2]; oral 5 mg/kg, time 4 hrs, 5 mg/kg): 10.2 and 13.8 and 3.1
Plasma concentration ([2]; oral 5 mg/kg, time 8 hrs, 5 mg/kg): 3.2 and 2.1 and 1.3
Plasma concentration ([2]; oral 10 mg/kg, time 0.5 hrs, 10 mg/kg): 1283.4 and 374.2 and 656.3
Plasma concentration ([2]; oral 10 mg/kg, time 1 hrs, 10 mg/kg): 814.4 and 337 and 493.5
Plasma concentration ([2]; oral 10 mg/kg, time 2 hrs, 10 mg/kg): 138.5 and 336.7 and 262.8
Plasma concentration ([2]; oral 10 mg/kg, time 4 hrs, 10 mg/kg): 113.3 and 25.7 and 30.1
Plasma concentration ([2]; oral 10 mg/kg, time 8 hrs, 10 mg/kg): 14.4 and 5.9 and 4.9
Plasma concentration ([2]; oral 30 mg/kg, time 0.5 hrs, 30 mg/kg): 3584.3 and 3445.6 and 4112.8
Plasma concentration ([2]; oral 30 mg/kg, time 1 hrs, 30 mg/kg): 3340.5 and 2725.9 and 2974.4
Plasma concentration ([2]; oral 30 mg/kg, time 2 hrs, 30 mg/kg): 1379.4 and 1690.4 and 1354.7
Plasma concentration ([2]; oral 30 mg/kg, time 4 hrs, 30 mg/kg): 160.9 and 186.3 and 206.9
Plasma concentration ([2]; oral 30 mg/kg, time 8 hrs, 30 mg/kg): 13.1 and 14.5 and 13.6
half-life ([2]; mouse, plasma, single oral dose 30 mg kg−1, read-out: calculated half-life (plasma) (converted)): 60 min
remaining at 1 h (Plasma stability): 97%
matrix contraction ([3]; human pancreatic cancer CAFs, PXS-5505 30 µM): no effect on CAF ability to contract matrices
area of matrices ([3]; time 0): 3.834
area of matrices ([3]; time 6): 3 and 2.954 and 2.863 and 2.88 and 3.193 (2×) and 3.06 and 3.1 and 3.113
area of matrices ([3]; time 10): 2.446 and 2.524 and 2.482 and 2.6253 and 2.773 and 2.7357 and 2.554 (2×) and 2.298
area of matrices ([3]; time 12): 2.093 and 2.049 and 2.109 and 2.548 and 2.951 and 2.912 and 2.791 (2×) and 2.892
